Experimental data as given in ChEMBL document CHEMBL1201862, “PubChem BioAssay data set” (2004).
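Briefly, cells in 96-well plates were exposed to five compound concentrations for 48 h, and endpoints were estimated by linear interpolation. Abbreviation: GI50, concentration required for 50% inhibition of growth.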 Calls of active or inactive are those of the source. Cut-off read from the data, not from the text of the source: active = GI50 up to about 1.1 µM and inactive = higher.

What was measured:
Test in all cases: NCI-60 cell line screen, 48 h
A498 = system: A498
A549 = system: A549
ACHN = system: ACHN
DU-145 = system: DU-145
EKVX = system: EKVX
HT-29 = system: HT-29
LOX IMVI = system: LOX IMVI
MCF7 = system: MCF7
MDA-N = system: MDA-N
Malme-3M = system: Malme-3M
OVCAR-3 = system: OVCAR-3
OVCAR-4 = system: OVCAR-4
PC-3 = system: PC-3
SF-539 = system: SF-539
SK-MEL-28 = system: SK-MEL-28
SK-OV-3 = system: SK-OV-3
SNB-19 = system: SNB-19
SNB-75 = system: SNB-75
UO-31 = system: UO-31
BT-549 = system: BT-549

Measured: GI50

O=C1NN(c2ccccc2)C(=O)C2C3c4ccccc4C(c4ccccc43)C12 (stereo unspecified)
inactive: A498 32.2 µM | A549 > 100 µM | ACHN > 100 µM | DU-145 > 100 µM | EKVX > 100 µM | HT-29 32.7 µM | LOX IMVI > 100 µM | MCF7 44.2 µM | MDA-N > 100 µM | Malme-3M 85.1 µM | OVCAR-3 > 100 µM | OVCAR-4 60 µM | PC-3 24.3 µM | SF-539 > 100 µM | SK-MEL-28 > 100 µM | SK-OV-3 > 100 µM | SNB-19 > 100 µM | SNB-75 26.1 µM | UO-31 > 100 µM

CCOC(=O)CSc1nc(-c2ccc(Cl)cc2)c(C#N)c(=O)[nH]1
inactive: A498 > 100 µM | A549 > 100 µM | ACHN > 100 µM | BT-549 > 100 µM | DU-145 > 100 µM | EKVX > 100 µM | HT-29 > 100 µM | MCF7 99.5 µM | OVCAR-3 > 100 µM | OVCAR-4 > 100 µM | PC-3 > 100 µM | SF-539 > 100 µM | SK-MEL-28 > 100 µM | SK-OV-3 > 100 µM | SNB-19 74.8 µM | SNB-75 63.7 µM | UO-31 77.3 µM

S=c1oc(CCCCCCCCc2nn(CNc3ccccc3)c(=S)o2)nn1CNc1ccccc1
inactive: A498 > 100 µM | A549 > 100 µM | ACHN > 100 µM | BT-549 > 100 µM | DU-145 > 100 µM | EKVX > 100 µM | HT-29 > 100 µM | MCF7 > 100 µM | OVCAR-4 > 100 µM | PC-3 > 100 µM | SK-MEL-28 > 100 µM | SK-OV-3 > 100 µM | SNB-19 > 100 µM | SNB-75 > 100 µM | UO-31 > 100 µM

COC(=O)CCc1ccc2c(c1)CC1(C2)Cc2ccc3c(c2C1)CCC3 (stereo unspecified)
inactive: A498 > 100 µM | A549 53.5 µM | ACHN > 100 µM | DU-145 70 µM | EKVX > 100 µM | HT-29 70.3 µM | LOX IMVI > 100 µM | MCF7 59.6 µM | MDA-N 87.9 µM | Malme-3M > 100 µM | OVCAR-3 > 100 µM | OVCAR-4 49.1 µM | PC-3 > 100 µM | SF-539 > 100 µM | SK-MEL-28 > 100 µM | SK-OV-3 30.4 µM | SNB-19 > 100 µM | SNB-75 > 100 µM | UO-31 32.4 µM

O=C1CCCC2=C1CC1=C(CCCC1=O)N2c1cccc2ccccc12
inactive: A498 > 100 µM | A549 > 100 µM | ACHN > 100 µM | BT-549 26.8 µM | EKVX > 100 µM | HT-29 > 100 µM | LOX IMVI > 100 µM | MCF7 41.1 µM | OVCAR-3 > 100 µM | OVCAR-4 > 100 µM | PC-3 > 100 µM | SF-539 > 100 µM | SK-MEL-28 > 100 µM | SK-OV-3 > 100 µM | SNB-19 75 µM | SNB-75 29.1 µM | UO-31 > 100 µM

CC(=O)[C@@H]1C/C(=C\OCc2ccccc2)O[C@H]1C
inactive: A498 > 100 µM | A549 > 100 µM | ACHN > 100 µM | BT-549 > 100 µM | DU-145 > 100 µM | EKVX > 100 µM | HT-29 > 100 µM | LOX IMVI 61.2 µM | Malme-3M > 100 µM | OVCAR-3 > 100 µM | OVCAR-4 > 100 µM | SF-539 > 100 µM | SK-MEL-28 > 100 µM | SK-OV-3 > 100 µM | SNB-19 > 100 µM | SNB-75 > 100 µM | UO-31 > 100 µM

Cc1nc2ccc([N+](=O)[O-])cc2c(=O)n1C(=S)Nc1cccc(Cl)c1
inactive: A498 9.4 µM | A549 23.2 µM | ACHN 17.5 µM | DU-145 28.4 µM | EKVX 18.7 µM | HT-29 17.7 µM | LOX IMVI 12.9 µM | MCF7 17.2 µM | MDA-N 16.4 µM | Malme-3M 21.1 µM | OVCAR-3 12.3 µM | OVCAR-4 19.5 µM | PC-3 15.2 µM | SF-539 19.5 µM | SK-MEL-28 17.6 µM | SK-OV-3 22.5 µM | SNB-19 27.8 µM | SNB-75 16.5 µM | UO-31 5.24 µM

CCOC(=O)C1C/C(C)=C(/C)SCCCS1 (stereo unspecified)
inactive: A498 > 100 µM | A549 > 100 µM | ACHN > 100 µM | DU-145 > 100 µM | EKVX > 100 µM | HT-29 > 100 µM | LOX IMVI 68.5 µM | MCF7 > 100 µM | MDA-N > 100 µM | Malme-3M > 100 µM | OVCAR-3 98.9 µM | OVCAR-4 > 100 µM | PC-3 > 100 µM | SF-539 > 100 µM | SK-MEL-28 > 100 µM | SK-OV-3 > 100 µM | SNB-19 > 100 µM | UO-31 > 100 µM
